Results published in ChEMBL document CHEMBL5360568, “Synthesis and anti-Alzheimer potential of novel α-amino phosphonate derivatives and probing their molecular interaction mechanism with acetylcholinesterase” (Eur J Med Chem, 2023).
Activity calls are given as the source filed them. No cut-off for these calls is given here.

Tests used:
[1] = test system: SK-N-SH; assay: Neuroprotective activity against H2O2 induced oxidative cell damage in human SK-N-SH cells assessed as increase in cell viability at 90 uM preincubated for 3 hrs followed by H2O2 stimulation for 2 hrs by MTT assay (Rvb= 40%); assay type: functional
[2] = biological target: Amyloid-beta precursor protein (Homo sapiens) (UniProt P05067); assay: Modulation of amyloid beta (1 to 42) (unknown origin) assembly assessed as morphological changes in amyloid beta (1 to 42) aggregates at 1 mM incubated for 3 days by FE-SEM image analysis relative to control; settings: filed as modulator, time 3.0 day
[3] = Cytotoxicity against human SK-N-SH cells assessed as cell viability at 30 to 60 uM incubated for 24 hrs by MTT assay; assay type: toxicity, cell-based; settings: dose 30-60 µM, read-out: Activity
[4] = Antioxidant activity assessed as ABTS radical scavenging activity incubated for 30 mins by spectrophotometric analysis; assay type: functional
[5] = biological target: T1, Acetylcholinesterase (Homo sapiens, UniProt P22303); assay: Binding affinity to AChE (unknown origin) assessed as decrease in negative bands intensity towards the baseline at […] incubated for 5 mins by Circular dichroism analysis; settings: dose lower 0.001 nM
[6] = biological target: T1, Acetylcholinesterase; assay: Binding affinity to AChE (unknown origin) assessed as static fluorescence quenching at pH 7.2 at 0.001 to 0.009 mM incubated for 5 mins by Stern-Volmer quenching plot based fluorescence spectroscopy; settings: dose 0.001-0.009 mM
[7] = biological target: T1, Acetylcholinesterase; assay: Binding affinity to AChE (unknown origin) assessed as gibbs free energy change at temperature of 298 K at 0.001 to 0.009 mM incubated for 5 mins by fluorescence quenching analysis; settings: dose 0.001-0.009 mM
[8] = test system: SK-N-SH; assay: Neuroprotective activity against H2O2 induced oxidative cell damage in human SK-N-SH cells assessed as increase in cell viability at 30 to 60 uM preincubated for 3 hrs followed by H2O2 stimulation for 2 hrs by MTT assay (Rvb= 40%); assay type: functional, cell-based; settings: dose 30-60 µM
[9] = biological target: T1, Acetylcholinesterase; assay: Binding affinity to AChE (unknown origin) assessed as reduction in intrinsic fluorescence intensity at pH 7.2 at 0.001 to 0.009 mM incubated for 5 mins by fluorescence quenching analysis; settings: dose 0.001-0.009 mM
[10] = biological target: Cholinesterase (Equus caballus, UniProt P81908); assay: Inhibition of equine serum BuChE using butyrylthiocholine iodide as substrate preincubated for 5 mins followed by substrate addition by DTNB based Ellman's method
[11] = test system: Supercoiled DNA; assay: Induction of supercoiled pBR322 plasmid DNA (unknown origin) cleavage assessed as DNA nicking at 10 uM incubated for 2 hrs by Agarose gel electrophoresis analysis; assay type: nucleic-acid assay
[12] = Cytotoxicity against human SK-N-SH cells assessed as cell viability at 90 uM incubated for 24 hrs by MTT assay; assay type: toxicity, cell-based; settings: read-out: Activity
[13] = biological target: T1, Acetylcholinesterase; assay: Inhibition of human erythrocyte AChE using acetylthiocholine iodide as substrate preincubated for 5 mins followed by substrate addition by DTNB based Ellman's method
[14] = biological target: T2, Acetylcholinesterase (Electrophorus electricus, UniProt O42275); assay: Inhibition of electric eel AChE using acetylthiocholine iodide as substrate preincubated for 5 mins followed by substrate addition by DTNB based Ellman's method
[15] = biological target: Amyloid-beta precursor protein (Homo sapiens) (UniProt P05067); assay: Modulation of amyloid beta (1 to 42) (unknown origin) self aggregation assessed as increase in fluorescence intensity at 0.03 to 0.1 uM incubated for 24 hrs by Thioflavin T fluorescence assay; settings: filed as modulator, dose 0.03-0.1 µM
[16] = test system: DNA; assay: Induction of pBR322 plasmid DNA (unknown origin) damage assessed as protection against Fenton's reagent induced DNA (unknown origin) damage by observing disappearance of band at 20 to 80 uM incubated for 30 mins by Agarose gel electrophoresis analysis; assay type: nucleic-acid assay; settings: dose 20-80 µM
[17] = Selectivity ratio, ratio of IC50 for inhibition of equine serum BuChE to IC50 for inhibition of electric eel AChE
[18] = biological target: Acetylcholinesterase (Electrophorus electricus) (UniProt O42275); assay: Mixed type inhibition of electric eel AChE using acetylthiocholine iodide as substrate assessed as decrease in Vmax and increase in Km preincubated for 5 mins followed by substrate addition and measured after 5 mins by Ellman's method based double reciprocal Lineweaver-Burk plot analysis; settings: time 10.0 min
[19] = biological target: T2, Acetylcholinesterase; assay: Mixed type inhibition of electric eel AChE using acetylthiocholine iodide as substrate assessed as inhibition constant of second plot of slope preincubated for 5 mins followed by substrate addition and measured after 5 mins by Ellman's method based double reciprocal Lineweaver-Burk plot analysis
[20] = biological target: T2, Acetylcholinesterase; assay: Mixed type inhibition of electric eel AChE using acetylthiocholine iodide as substrate assessed as inhibition constant of second plot of intercept preincubated for 5 mins followed by substrate addition and measured after 5 mins by Ellman's method based double reciprocal Lineweaver-Burk plot analysis

Amyloid-beta precursor protein (Homo sapiens), sequence (P05067 whole entry): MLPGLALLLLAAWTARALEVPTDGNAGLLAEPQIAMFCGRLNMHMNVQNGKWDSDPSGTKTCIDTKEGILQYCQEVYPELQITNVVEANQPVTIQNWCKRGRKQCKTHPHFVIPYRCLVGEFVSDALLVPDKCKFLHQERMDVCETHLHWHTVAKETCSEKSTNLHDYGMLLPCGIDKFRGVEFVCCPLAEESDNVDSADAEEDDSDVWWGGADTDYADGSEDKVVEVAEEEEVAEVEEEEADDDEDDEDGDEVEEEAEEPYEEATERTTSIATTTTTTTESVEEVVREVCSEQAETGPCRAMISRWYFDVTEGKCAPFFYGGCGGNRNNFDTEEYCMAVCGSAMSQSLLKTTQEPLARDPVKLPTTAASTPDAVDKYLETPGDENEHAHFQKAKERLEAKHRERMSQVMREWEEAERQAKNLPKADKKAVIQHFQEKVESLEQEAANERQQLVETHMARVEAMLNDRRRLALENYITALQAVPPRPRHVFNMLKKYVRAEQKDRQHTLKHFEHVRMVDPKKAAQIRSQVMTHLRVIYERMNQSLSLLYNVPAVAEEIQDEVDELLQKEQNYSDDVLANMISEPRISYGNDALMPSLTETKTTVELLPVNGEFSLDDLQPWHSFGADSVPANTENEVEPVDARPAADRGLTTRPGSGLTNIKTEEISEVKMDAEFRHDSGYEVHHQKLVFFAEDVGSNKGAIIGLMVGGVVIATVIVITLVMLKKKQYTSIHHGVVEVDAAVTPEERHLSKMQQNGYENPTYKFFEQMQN
T1 sequence (P22303 whole entry): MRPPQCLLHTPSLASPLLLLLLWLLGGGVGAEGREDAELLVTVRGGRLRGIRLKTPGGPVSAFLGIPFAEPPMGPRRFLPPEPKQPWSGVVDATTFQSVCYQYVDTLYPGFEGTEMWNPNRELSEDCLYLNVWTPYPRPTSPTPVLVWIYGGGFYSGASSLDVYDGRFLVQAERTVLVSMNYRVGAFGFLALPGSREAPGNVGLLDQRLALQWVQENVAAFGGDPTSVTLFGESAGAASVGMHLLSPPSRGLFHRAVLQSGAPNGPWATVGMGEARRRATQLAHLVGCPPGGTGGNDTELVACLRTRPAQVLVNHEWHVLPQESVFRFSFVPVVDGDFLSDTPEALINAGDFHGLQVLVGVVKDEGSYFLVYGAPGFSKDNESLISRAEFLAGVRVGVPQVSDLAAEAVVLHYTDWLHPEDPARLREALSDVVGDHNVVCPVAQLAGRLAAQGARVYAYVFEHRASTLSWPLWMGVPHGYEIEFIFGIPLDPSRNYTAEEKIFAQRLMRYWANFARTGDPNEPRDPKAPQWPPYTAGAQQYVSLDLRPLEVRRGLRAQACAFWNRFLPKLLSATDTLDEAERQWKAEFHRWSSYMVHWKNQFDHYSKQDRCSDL
Cholinesterase, sequence (P81908 whole entry): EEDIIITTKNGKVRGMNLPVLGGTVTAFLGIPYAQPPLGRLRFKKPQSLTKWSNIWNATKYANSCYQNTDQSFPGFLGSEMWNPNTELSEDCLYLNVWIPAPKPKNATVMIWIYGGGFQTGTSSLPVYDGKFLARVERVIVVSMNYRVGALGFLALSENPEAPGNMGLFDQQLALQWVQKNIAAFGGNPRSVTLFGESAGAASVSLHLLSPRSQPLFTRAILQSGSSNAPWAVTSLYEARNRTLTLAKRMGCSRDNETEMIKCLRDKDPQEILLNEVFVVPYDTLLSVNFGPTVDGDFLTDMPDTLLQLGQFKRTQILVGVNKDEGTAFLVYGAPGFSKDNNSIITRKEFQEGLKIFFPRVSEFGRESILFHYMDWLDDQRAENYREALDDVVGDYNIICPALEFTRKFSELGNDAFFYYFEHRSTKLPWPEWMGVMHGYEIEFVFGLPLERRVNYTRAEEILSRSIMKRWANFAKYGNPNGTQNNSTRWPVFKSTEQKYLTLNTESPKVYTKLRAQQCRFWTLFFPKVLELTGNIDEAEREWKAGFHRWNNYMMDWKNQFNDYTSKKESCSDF
T2 sequence (O42275 whole entry): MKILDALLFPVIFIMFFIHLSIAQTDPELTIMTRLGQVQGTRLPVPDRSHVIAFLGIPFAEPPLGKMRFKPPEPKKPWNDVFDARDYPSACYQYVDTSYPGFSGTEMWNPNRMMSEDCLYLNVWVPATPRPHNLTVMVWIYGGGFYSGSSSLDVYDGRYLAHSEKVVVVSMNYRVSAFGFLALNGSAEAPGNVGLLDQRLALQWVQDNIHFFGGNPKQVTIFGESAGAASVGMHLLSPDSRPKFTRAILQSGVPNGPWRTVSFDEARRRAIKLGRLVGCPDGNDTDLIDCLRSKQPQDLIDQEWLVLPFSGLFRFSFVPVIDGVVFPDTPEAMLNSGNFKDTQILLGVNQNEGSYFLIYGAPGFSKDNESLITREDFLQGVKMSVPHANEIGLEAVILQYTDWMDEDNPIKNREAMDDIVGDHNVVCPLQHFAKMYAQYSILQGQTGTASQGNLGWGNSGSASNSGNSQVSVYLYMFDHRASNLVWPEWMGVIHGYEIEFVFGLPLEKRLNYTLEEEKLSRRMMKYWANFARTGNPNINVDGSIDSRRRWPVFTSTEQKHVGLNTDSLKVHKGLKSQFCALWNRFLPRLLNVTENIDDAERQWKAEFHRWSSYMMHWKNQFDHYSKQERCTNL
Acetylcholinesterase (Electrophorus electricus), sequence (O42275 24-633 limits assumed): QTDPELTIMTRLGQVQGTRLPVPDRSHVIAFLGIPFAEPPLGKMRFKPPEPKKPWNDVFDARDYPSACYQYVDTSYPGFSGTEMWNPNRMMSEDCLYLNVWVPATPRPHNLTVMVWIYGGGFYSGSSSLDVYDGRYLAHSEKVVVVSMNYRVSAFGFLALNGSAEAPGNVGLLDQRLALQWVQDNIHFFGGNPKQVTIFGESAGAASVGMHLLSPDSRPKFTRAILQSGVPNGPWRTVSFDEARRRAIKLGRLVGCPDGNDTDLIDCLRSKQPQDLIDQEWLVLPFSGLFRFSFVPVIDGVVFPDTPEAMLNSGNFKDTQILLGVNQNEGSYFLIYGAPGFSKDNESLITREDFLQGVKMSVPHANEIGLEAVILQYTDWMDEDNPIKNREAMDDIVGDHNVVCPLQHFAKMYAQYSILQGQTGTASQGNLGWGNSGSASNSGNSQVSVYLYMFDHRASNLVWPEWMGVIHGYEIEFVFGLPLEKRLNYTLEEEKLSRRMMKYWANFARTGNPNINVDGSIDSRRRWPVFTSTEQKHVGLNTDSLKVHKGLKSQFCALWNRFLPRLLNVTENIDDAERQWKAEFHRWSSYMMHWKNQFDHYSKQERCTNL

Row | SMILES | IC50 [4] [µM] | IC50 [10] [µM] | IC50 [13] [µM] | IC50 [14] [µM] | Activity [15] | Ratio IC50 [17] | other results
1 | CCOP(=O)(OCC)C(Nc1cccc(Cl)c1Cl)c1ccc(OCc2nc3ccccc3c(=O)n2-c2ccc(F)cc2)c(OC)c1 (configuration not stated) | 29.3 | 23.3 | 2.55 | 0.306 | Active | 76 | Activity [1]: 65%; Activity [2]: Active; viability at 24 h, up to 60 µM [3]: > 90%; Activity [5]: Dose-Dependent Effect; Activity [6]: Active; deltaG [7]: -6.94 kcal/mol; Activity [8]: Active; Activity [9]: Dose-Dependent Effect; Activity [11]: Active; viability at 24 h, 90 µM [12]: 85%; Activity [16]: Active
2 | CCOP(=O)(OCC)C(Nc1ccccc1OC)c1ccc(OCc2nc3ccccc3c(=O)n2-c2ccc(F)cc2)c(OC)c1 (configuration not stated) | 28.8 | 10.6 | 2.65 | 0.296 | Active |  | Activity [1]: 65%; Activity [2]: Active; viability at 24 h, up to 60 µM [3]: > 90%; Activity [5]: Dose-Dependent Effect; Activity [6]: Active; deltaG [7]: -6.88 kcal/mol; Activity [8]: Active; Activity [9]: Dose-Dependent Effect; Activity [11]: inactive; viability at 24 h, 90 µM [12]: 85%
3 | CCOP(=O)(OCC)C(Nc1ccccc1Br)c1ccc(OCc2nc3ccccc3c(=O)n2-c2ccc(F)cc2)c(OC)c1 (configuration not stated) | > 50 | > 100 |  | 0.473 |  |  | 
4 | CCOP(=O)(OCC)C(Nc1ccccc1C(F)(F)F)c1ccc(OCc2nc3ccccc3c(=O)n2-c2ccc(F)cc2)c(OC)c1 (configuration not stated) | 36.5 | > 100 | 4.93 | 0.341 |  |  | 
5 | CCOP(=O)(OCC)C(Nc1ccccc1O)c1ccc(OCc2nc3ccccc3c(=O)n2-c2ccc(F)cc2)c(OC)c1 (configuration not stated) | 41.2 | > 100 |  | 0.558 |  |  | 
6 | Cc1c(C)c2c(c(C)c1O)CCC(C)(C(=O)O)O2 (configuration not stated) [TROLOX] | 25.1 |  |  |  |  |  | 
7 | CCOP(=O)(OCC)C(Nc1cc(C)cc(C)c1)c1ccc(OCc2nc3ccccc3c(=O)n2-c2ccc(F)cc2)c(OC)c1 (configuration not stated) | 46.2 | 26.4 |  | 0.465 |  | 56.8 | 
8 | CCOP(=O)(OCC)C(Nc1ccccc1)c1ccc(OCc2nc3ccccc3c(=O)n2-c2ccc(F)cc2)c(OC)c1 (configuration not stated) | > 50 | > 100 |  | 0.921 |  |  | 
9 | CCOP(=O)(OCC)C(Nc1ccc(Cl)cc1)c1ccc(OCc2nc3ccccc3c(=O)n2-c2ccc(F)cc2)c(OC)c1 (configuration not stated) | 33.2 | > 100 |  | 0.639 |  |  | 
10 | COc1ccc2c3c1O[C@H]1C[C@@H](O)C=C[C@@]31CCN(C)C2 |  |  |  |  | Dose-Dependent Effect |  | 
11 | CCOP(=O)(OCC)C(Nc1ccc(C(=O)O)cc1)c1ccc(OCc2nc3ccccc3c(=O)n2-c2ccc(F)cc2)c(OC)c1 (configuration not stated) | 30.1 | 20.2 | 1.16 | 0.289 | Active | 70.1 | Activity [1]: 65%; Activity [2]: Active; viability at 24 h, up to 60 µM [3]: > 90%; Activity [5]: Dose-Dependent Effect; Activity [6]: Active; deltaG [7]: -7.54 kcal/mol; Activity [8]: Active; inhibition [18]: Active; Ki [19]: 0.297 µM; Activity [9]: Dose-Dependent Effect; Activity [11]: inactive; Ki [20]: 0.292 µM
12 | CCOP(=O)(OCC)C(Nc1ccccc1C#N)c1ccc(OCc2nc3ccccc3c(=O)n2-c2ccc(F)cc2)c(OC)c1 (configuration not stated) | 39.4 | 11 | 2.94 | 0.322 |  | 34.2 | 
